What was measured:
[1] = system: guinea pig papillary muscle; experiment: Effect on the action potential duration (APD90) on the guinea pig papillary muscle under hypoxia; details: test substance 2 μmol/l in bath, 60 minutes after addition; 100% = APD90 under hypoxia before substance, 0% = normoxic APD90
Text: 1) Effect on the Action Potential Duration on the Guinea Pig Papillary Muscle
ATP deficiency states like those observed in the cardiomyocyte during an ischemia lead to a shortening of the action potential duration. They are regarded as one of the causes of so-called reentry arrhythmias, which can cause sudden cardiac death. The opening of ATP-sensitive potassium channels through the lowering of the ATP level is regarded as the cause thereof (ATP=adenosine triphosphate). For measuring the action potential on the guinea pig papillary muscle, a standard microelectrode technique was employed.
Guinea pigs of both sexes were sacrificed by a blow to the head, the heart was removed, and the papillary muscles were dissected out and suspended in an organ bath. The organ bath was rinsed with Ringer's solution (136 mmol/l NaCl, 3.3 mmol/l KCl, 2.5 mmol/l CaCl2, 1.2 mmol/l KH2PO4, 1.1 mmol/l MgSO4, 5.0 mmol/l glucose, 10.0 mmol/l 1-(2-hydroxyethyl)piperazine-4-(2-ethanesulfonic acid) (HEPES), pH adjusted to 7.4 with NaOH) and aerated with 100% oxygen at a temperature of 37° C. The muscle was stimulated via an electrode with square-wave pulses of 1 V and 1 ms duration and a frequency of 1 Hz. The action potential was derived through a glass microelectrode which is inserted intracellularly and filled with 3 mol/l KCl solution, and was recorded. The action potential was amplified using an amplifier from Hugo Sachs (March-Hugstetten, Germany) and stored and evaluated by a computer. The duration of the action potential was determined at a degree of repolarization of 90% (APD90). The shortening of the action potential was induced after an equilibration time of 30 minutes by rinsing the papillary muscle with a hypoxic solution. For this, the glucose was removed, the HEPES buffer replaced by PIPES buffer (piperazine-1,4-bis(2-ethanesulfonic acid)), the pH adjusted to 6.5 and aeration was carried out with 100% nitrogen. This led after a period of 60 minutes to a marked shortening of the APD90. After this time, the test substance was added in the form of a stock solution in propanediol, so that the concentration of the substance in the bath solution was 2 μmol/l. After a further 60 minutes, the re-prolongation of the action potential again recorded. The table below indicates the overall shortening, resulting after hypoxia and addition of test substance, of the APD90 value in percent, i.e. the percentage shortening of the APD90 still remaining after addition of the test substance under hypoxia, where 100% corresponds to the APD90 value under hypoxic conditions before addition of the test substance and 0% corresponds to the APD90 value under normoxic conditions at the start of the experiment.

[2] = target: hSUR1/hKir6.2 (Homo sapiens, UniProt Q09428); experiment: Effect on membrane potential of hSUR1/hKir6.2-transfected CHO cells (hypoglycemic effect), DiBAC4 fluorescence, FLIPR; type: cell-based; details: CHO cells activated with diaxozide, averages of at least 4 experiments
Chain of hSUR1/hKir6.2 (Q09428 whole entry): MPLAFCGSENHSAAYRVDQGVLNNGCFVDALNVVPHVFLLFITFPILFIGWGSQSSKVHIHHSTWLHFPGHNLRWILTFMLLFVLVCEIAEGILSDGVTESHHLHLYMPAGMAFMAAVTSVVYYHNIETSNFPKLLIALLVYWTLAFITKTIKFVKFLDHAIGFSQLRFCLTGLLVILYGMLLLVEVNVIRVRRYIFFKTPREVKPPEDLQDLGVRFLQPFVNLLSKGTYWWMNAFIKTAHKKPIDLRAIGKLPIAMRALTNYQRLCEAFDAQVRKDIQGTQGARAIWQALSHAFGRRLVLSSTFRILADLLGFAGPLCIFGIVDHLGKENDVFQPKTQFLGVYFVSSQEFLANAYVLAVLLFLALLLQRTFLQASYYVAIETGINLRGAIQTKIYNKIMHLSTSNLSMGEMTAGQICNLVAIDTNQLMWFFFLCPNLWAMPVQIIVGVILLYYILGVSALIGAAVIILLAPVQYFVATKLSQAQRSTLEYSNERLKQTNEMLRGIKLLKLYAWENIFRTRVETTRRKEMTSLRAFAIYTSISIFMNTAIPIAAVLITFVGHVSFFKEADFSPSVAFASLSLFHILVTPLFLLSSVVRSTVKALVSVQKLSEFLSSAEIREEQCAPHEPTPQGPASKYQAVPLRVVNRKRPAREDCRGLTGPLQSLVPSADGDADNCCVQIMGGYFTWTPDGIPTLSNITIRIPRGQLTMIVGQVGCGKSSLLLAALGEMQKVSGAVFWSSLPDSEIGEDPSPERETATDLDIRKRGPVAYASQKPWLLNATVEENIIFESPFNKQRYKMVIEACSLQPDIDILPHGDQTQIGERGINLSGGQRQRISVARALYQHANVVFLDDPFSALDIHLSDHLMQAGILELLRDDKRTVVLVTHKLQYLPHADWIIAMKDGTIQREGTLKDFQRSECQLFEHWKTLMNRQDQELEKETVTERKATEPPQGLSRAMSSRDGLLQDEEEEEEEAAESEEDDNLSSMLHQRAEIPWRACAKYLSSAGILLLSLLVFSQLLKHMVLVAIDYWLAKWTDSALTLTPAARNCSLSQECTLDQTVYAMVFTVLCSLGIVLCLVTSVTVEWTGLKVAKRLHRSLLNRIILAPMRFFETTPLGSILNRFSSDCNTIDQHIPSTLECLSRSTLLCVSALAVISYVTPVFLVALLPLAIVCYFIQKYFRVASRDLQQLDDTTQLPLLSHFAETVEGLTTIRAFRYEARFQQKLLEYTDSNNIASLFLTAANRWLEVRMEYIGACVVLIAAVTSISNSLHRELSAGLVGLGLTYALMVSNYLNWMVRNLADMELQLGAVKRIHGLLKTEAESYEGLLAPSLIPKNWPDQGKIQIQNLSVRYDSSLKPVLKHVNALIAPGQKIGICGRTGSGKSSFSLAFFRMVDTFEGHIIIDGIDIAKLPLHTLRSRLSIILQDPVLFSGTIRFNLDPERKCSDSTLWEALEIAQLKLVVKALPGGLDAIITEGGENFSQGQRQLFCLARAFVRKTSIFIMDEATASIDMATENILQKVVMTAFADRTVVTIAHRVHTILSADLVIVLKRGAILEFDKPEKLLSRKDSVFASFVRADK
Chain of hSUR1/hKir6.2 (Q14654 whole entry partner): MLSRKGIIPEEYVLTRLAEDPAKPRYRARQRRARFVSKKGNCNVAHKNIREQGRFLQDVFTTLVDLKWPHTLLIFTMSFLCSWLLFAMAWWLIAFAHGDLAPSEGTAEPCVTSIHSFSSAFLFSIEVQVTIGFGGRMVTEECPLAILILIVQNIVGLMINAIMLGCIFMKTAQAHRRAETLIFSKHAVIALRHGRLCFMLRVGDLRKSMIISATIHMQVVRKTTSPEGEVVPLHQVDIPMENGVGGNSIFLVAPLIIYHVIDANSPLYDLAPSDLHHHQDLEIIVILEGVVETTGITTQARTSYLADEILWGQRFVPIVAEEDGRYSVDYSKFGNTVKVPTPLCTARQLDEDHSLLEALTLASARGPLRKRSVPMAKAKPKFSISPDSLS
Text: 2) Effect on hSUR1/hKir6.2-Transfected CHO Cells (Hypoglycemic Effect)
The target organ of these compounds is the β cell of the pancreas, where they block ATP-sensitive potassium channels and bring about, through influencing the electric potential of the cell membrane, a release of the blood sugar-lowering hormone insulin. […] The extent of this depolarization of the cell membrane caused by the compounds according to the invention was investigated on CHO cells which were transfected with the cloned components of human pancreatic ATP-sensitive potassium channels, hSUR1 and hKir6.2, and were activated by pretreatment with diaxozide, an opener of ATP-sensitive potassium channels. The strength of action of a compound on the membrane potential of these transfected and activated CHO cells is a measure of the blood sugar-lowering potential of this compound.
On the day of the measurement, the microtiter plates were washed three times with PBS (physiological buffer solution). 90 μl remained in each well at the last washing step. The cells were then loaded with the fluorescent dye DiBAC4 (Molecular Probes, Portland, Oreg., USA) by adding 90 μl of a 10 micromolar solution of DIBAC4 in PBS and 90 μl of a 400-micromolar solution of diaxozide in PBS to each well. After an incubation time of 30 minutes at 37° C., the microtiter plates were then transferred into a Fluorescent Microtiter Plate Reader (FLIPR; Molecular Devices, Sunnyvale, Calif., USA). The cells were excited using an argon laser (Innova 90; Coherent, Santa Clara, Calif., USA) at a wavelength of 488 nm, and the fluorescence emission was measured using a CCD camera. Measurement of the membrane potential began after 4 minutes by adding 20 μl of a solution of the test substance or of the control solution to each well, measuring the resulting fluorescence emission every 20 seconds over a period of 20 minutes. The data listed below are averages of at least 4 experiments.

[3] = system: guinea pig heart; experiment: Effect on coronary flow under hypoxic conditions in the isolated perfused Langendorff guinea pig heart; details: 1 μM in perfusate, added 10 minutes before hypoxia; averages of 3 hearts
Text: 3) Effect on Coronary Flow Under Hypoxic Conditions in the Guinea Pig Heart
It is known that an oxygen deficiency in coronary vessels leads to a reflectory dilatation of the vessels in order to compensate the oxygen deficiency. The vascular KATP channel (SUR2B/Kir6.2) plays an important part in this. Its opening leads to hyperpolarization of the cell membrane of the smooth muscle cell and consequently to a reduced calcium influx, resulting in a dilatation of the vessel. Blockade of the vascular KATP channel inhibits the widening of the vessel and thus adjustment of the coronary flow under hypoxic conditions. The test model used for determining the coronary flow was an isolated perfused Langendorff heart of a guinea pig.
Guinea pigs of both sexes were sacrificed by a blow to the head. The heart was quickly removed, and the aorta was canulated. After the canulation, the heart was suspended in the perfusion solution in the Langendorff apparatus, and a latex balloon was inserted into the left ventricle. The coronary flow was recorded using a flow transducer, type E, from Hellige (Freiburg, Germany). The heart was perfused with a constant pressure of 55 mm Hg. Hypoxia was induced by changing the aeration from 95% oxygen/5% carbon dioxide (=normoxia) to 20% oxygen/75% nitrogen/5% carbon dioxide. […]

SMILES | melting point | Remaining shortening of the APD90 under hypoxia in percent [1] | hSUR1/hKir6.2 blockade at 0.1 μM [2] | hSUR1/hKir6.2 blockade at 1 μM [2] | hSUR1/hKir6.2 blockade at 10 μM [2] | Hypoxic coronary flow compared with the control in percent [3]
COc1ccc(Cl)cc1C(=O)NCCC1CCN(S(=O)(=O)NC(=S)NC2CCCCC2)CC1 [Example 6, 5-Chloro-2-methoxy-N-(2-(1-(3-cyclohexylthioureidosulfonyl)piperidin-4-yl)ethyl)benzamide] | 146 to 148 °C | – | – | – | – | –
CNC(=S)NS(=O)(=O)N1CCC(CCNC(=O)c2cc(Cl)ccc2OC)CC1 [Example 1, 5-Chloro-2-methoxy-N-(2-(1-(3-methylthioureidosulfonyl)piperidin-4-yl)ethyl)benzamide] | – | 80% | <1% | 2% | 41% | –
CCNC(=S)NS(=O)(=O)N1CCC(CCNC(=O)c2cc(Cl)ccc2OC)CC1 [Example 2, 5-Chloro-2-methoxy-N-(2-(1-(3-ethylthioureidosulfonyl)piperidin-4-yl)ethyl)benzamide] | – | 82% | <1% | 4% | 67% | –
COc1ccc(Cl)cc1C(=O)NCCC1CCN(S(=O)(=O)NC(=O)NC2CC2)CC1 [Example 11, 5-Chloro-2-methoxy-N-(2-(1-(3-cyclopropylureidosulfonyl)piperidin-4-yl)ethyl)benzamide] | 138 to 139 °C | – | – | – | – | –
COc1ccc(Cl)cc1C(=O)NCCC1CCN(S(=O)(=O)NC(=S)NC2CC2)CC1 [Example 5, 5-Chloro-2-methoxy-N-(2-(1-(3-cyclopropylthioureidosulfonyl)piperidin-4-yl)ethyl)benzamide] | 144 to 145 °C | – | – | – | – | –
CCNC(=O)NS(=O)(=O)N1CCC(CCNC(=O)c2cc(Cl)ccc2OC)CC1 [Example 8, 5-Chloro-2-methoxy-N-(2-(1-(3-ethylureidosulfonyl)piperidin-4-yl)ethyl)benzamide] | – | 54% | 8% | 55% | 102% | –
COc1ccc(Cl)cc1C(=O)NCCC1CCN(S(=O)(=O)NC(=S)NC(C)C)CC1 [Example 4, 5-Chloro-2-methoxy-N-(2-(1-(3-isopropylthioureidosulfonyl)piperidin-4-yl)ethyl)benzamide] | – | 54% | 2% | 53% | 89% | 61%
CCCNC(=S)NS(=O)(=O)N1CCC(CCNC(=O)c2cc(Cl)ccc2OC)CC1 [Example 3, 5-Chloro-2-methoxy-N-(2-(1-(3-propylthioureidosulfonyl)piperidin-4-yl)ethyl)benzamide] | – | 67% | 5% | 55% | 89% | –
CNC(=O)NS(=O)(=O)N1CCC(CCNC(=O)c2cc(Cl)ccc2OC)CC1 [Example 7, 5-Chloro-2-methoxy-N-(2-(1-(3-methylureidosulfonyl)piperidin-4-yl)ethyl)benzamide] | – | 68% | <1% | 15% | 60% | –
CCCNC(=O)NS(=O)(=O)N1CCC(CCNC(=O)c2cc(Cl)ccc2OC)CC1 [Example 9, 5-Chloro-2-methoxy-N-(2-(1-(3-propylureidosulfonyl)piperidin-4-yl)ethyl)benzamide] | 140 to 142 °C | – | – | – | – | –
COc1ccc(Cl)cc1C(=O)NCCc1ccc(S(=O)(=O)NC(=O)NC2CCCCC2)cc1 [Comparison (1), glibenclamide, reference compound] | – | – | – | – | – | 35%
